Assay results published in patent publication US11638427B2, “Methods and compositions for altering secondary metabolites in plants” (Impello Biosciences, Inc, priority 2020, dated 2023).

Columns and labels:
[1] = test system: seedling mold; experiment: Fungal plug growth on jasmonate-infused PDA plates; assay type: cell-based, Trichoderma ghanense; conditions: for seedling mold growth: 1 mM, 4.25 mM, 10 mM in PDA, 72 hours post inoculation
Procedure: (§1) MDJ (TCI, CAS No.: 24851-98-7) and CJ were infused into potato dextrose agar (PDA, VWR Cat No.: 90003-494) petri dishes (100×15 mm VWR, Cat No: 25384-094) at concentrations ranging from 1 mM, 4.25 mM, and 10 mM. Each treatment was prepared using a technical grade stock solution of pure chemical (CJ or MDJ) diluted with TWEEN®-20 (VWR, CAS No.: […]). Culturable oyster mushroom and seedling mold served to create fungal mycelial plugs using a sterile 1 mL pipette tip (Eppendorf, Cat No.: 022491458) held upside down. The tips were used to make circle excisions (i.e., fungal plugs) from a mycelial mat grown on PDA with no biochemical infusions. Fungal pugs were then transferred to PDA infused with varying concentrations of CJ or MDJ, and control plates (no CJ or MDJ infusion) to monitor fungal growth at room temperature over time.
To compare the efficacy of MDJ and MeJA at inhibiting the same seedling mold as used in the experiment above, a second experiment was conducted using PDA plates infused with either MDJ or MeJA at different concentrations. All plates were generated and inoculated as described above and incubated at room temperature under identical conditions. Shown in FIGS. 9A-9C are plates of seedling mold 72 hours post fungal inoculation. Control plates are shown on the top row, followed by concentrations of MeJA (left) and MDJ (right) in duplicate at 1 mM (FIG. 9A), 4.25 mM (FIG. 9B), and 10 mM (FIG. 9C). […] Subsequent sequence analysis identified the “seedling mold” as Trichoderma ghanense.

[2] = test system: Diaporthe rudis; experiment: Mold growth on jasmonate-infused plates, mold 3 isolated from avocado; assay type: cell-based; conditions: various concentrations in plates
Procedure: as §1
(§2) Based on the above results in Cannabis spp., additional fungi from various crops was sampled and tested. Plates comprising various concentrations of MDJ or MJ were prepared as described above.

[3] = test system: Cladosporium cladosporioides; experiment: Mold growth on jasmonate-infused plates, mold isolated from tomato; assay type: cell-based; conditions: various concentrations in plates
Procedure: as §1, §2

[4] = test system: strawberries; experiment: Fruit MDJ dips, 2 weeks observation; assay type: in vivo

Row | Compound | seedling mold growth [1] | growth of mold isolated from avocado (mold 3) [2] | growth of mold isolated from tomato [3] | seedling mold growth compared to control ([1]; all concentrations (1 mM, 4.25 mM, 10 mM) in PDA, 72 hours and 10 days) | efficacy at inhibiting seedling mold, MDJ compared with MeJA ([1]; at the 1 mM concentration, 72 hours) | mold ([4]; dip 1 M) | mold ([4]; dip 5, 10, 20 mM and control)
1 | CC/C=C\C[C@H]1C(=O)CC[C@@H]1CC(=O)OC [MeJA, Methyl Jasmonate] | inhibited | effective at preventing the growth | effective at preventing the growth | – | – | – | –
2 | CCCCCC1C(=O)CCC1CC(=O)OC (stereo not shown) [MDJ, methyl dihydrojasmonate] | inhibited | effective at preventing the growth | effective at preventing the growth | showed inhibition | more effective | prohibited mold for two weeks | mold in all groups after one week
